Experimental data taken from the supplement of paper PMC8967900.

Experiments:
Assay in all cases: selective drug sensitivity score (sDSS, relative to normal bone marrow) (sDSS (score)); higher = more potent and effective on the cell line relative to normal bone marrow cells
Conditions in all cases: 72 h
ALL-SIL = tested on: ALL-SIL
CCRF-CEM = tested on: CCRF-CEM
COG-LL-332h = tested on: COG-LL-332h
COG-LL-355h = tested on: COG-LL-355h
DND-41 = tested on: DND-41
HPB-ALL = tested on: HPB-ALL
KASUMI-10 = tested on: KASUMI-10
KASUMI-2 = tested on: KASUMI-2
LC4-1 = tested on: LC4-1
MHH-CALL-3 = tested on: MHH-CALL-3
NALL-1 = tested on: NALL-1
NALM-16 = tested on: NALM-16
NALM-6 = tested on: NALM-6
P30-OHKUBO = tested on: P30-OHKUBO
PF-382 = tested on: PF-382
RCH-ACV = tested on: RCH-ACV
REH = tested on: REH
RPMI-8402 = tested on: RPMI-8402
SEM cells = tested on: SEM cells
SUP-B15 = tested on: SUP-B15
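Note: ALL cell lines in 384-well plates, five doses spanning 10,000-fold, each plate scaled between vehicle and 100 µmol/L benzalkonium chloride controls, sDSS an adapted area-under-curve metric.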

Compound	selective drug sensitivity score (ALL-SIL)	selective drug sensitivity score (CCRF-CEM)	selective drug sensitivity score (COG-LL-332h)	selective drug sensitivity score (COG-LL-355h)	selective drug sensitivity score (DND-41)	selective drug sensitivity score (HPB-ALL)	selective drug sensitivity score (KASUMI-10)	selective drug sensitivity score (KASUMI-2)	selective drug sensitivity score (LC4-1)	selective drug sensitivity score (MHH-CALL-3)	selective drug sensitivity score (NALL-1)	selective drug sensitivity score (NALM-16)	selective drug sensitivity score (NALM-6)	selective drug sensitivity score (P30-OHKUBO)	selective drug sensitivity score (PF-382)	selective drug sensitivity score (RCH-ACV)	selective drug sensitivity score (REH)	selective drug sensitivity score (RPMI-8402)	selective drug sensitivity score (SEM cells)	selective drug sensitivity score (SUP-B15)
COc1cc(CCc2cc(NC(=O)c3ccc(N4CC(C)NC(C)C4)cc3)n[nH]2)cc(OC)c1 (stereo not given) [AZD4547] (top concentration 1000 nM)	0.56	-0.14	-0.04	-0.14	1.66	-0.14	1.36	0.26	0.66	-0.14	-0.14	0.56	-0.14	-0.14	-0.14	3.46	-0.14	-0.14	0.36	-0.14
CNC(=O)c1ccc(C)c(-n2c(C)cc(OCc3ccc(F)cc3F)c(Br)c2=O)c1 (top concentration 1000 nM)	0	0	0	0	0	4.6	0	0	0	0	0.3	0	0.1	4.5	0	7.4	4	0	1.9	0
O=C(NOCCO)c1ccc2cncn2c1Nc1ccc(I)cc1F [GDC-0623] (top concentration 2500 nM)	-3.4	-1	-1.8	-0.4	0.2	3.6	-3.4	0.3	-2.3	1.7	-0.5	0.1	3.8	-2.4	-3.3	-3.4	-3.4	-3.3	-3.4	-3
Cc1cc2c(F)c(Oc3ncnn4cc(OC[C@@H](C)O)c(C)c34)ccc2[nH]1 [Brivanib] (top concentration 1000 nM)	-0.04	-0.04	0.16	-0.04	-0.04	-0.04	-0.04	-0.04	-0.04	-0.04	-0.04	-0.04	-0.04	-0.04	0.06	1.96	0.96	0.46	-0.04	-0.04
Nc1cccc2c1C(=O)N(C1CCC(=O)NC1=O)C2=O (stereo not given) [Pomalidomide] (top concentration 10000 nM)	-0.26	-0.26	-0.26	5.24	4.24	1.44	0.24	-0.26	4.54	-0.26	-0.06	-0.26	-0.26	0.54	-0.26	9.54	2.74	-0.26	3.64	-0.26
CN1C(=O)N[C@H](Cc2c[nH]c3c(Cl)cccc23)C1=O [Necrostatin_2] (top concentration 10000 nM)	-0.08	-0.08	-0.08	-0.08	-0.08	-0.08	-0.08	-0.08	-0.08	-0.08	-0.08	-0.08	-0.08	-0.08	-0.08	-0.08	-0.08	-0.08	-0.08	-0.08
CCNc1nc(Nc2cc(F)c(C(=O)N3CCOCC3)cc2OC)ncc1C(F)(F)F [GNE-7915] (top concentration 1000 nM)	-0.06	-0.06	-0.06	-0.06	-0.06	-0.06	-0.06	-0.06	-0.06	-0.06	-0.06	-0.06	-0.06	-0.06	-0.06	-0.06	-0.06	-0.06	-0.06	-0.06
CC(O)(CS(=O)(=O)c1ccc(F)cc1)C(=O)Nc1ccc(C#N)c(C(F)(F)F)c1 (stereo not given) [Bicalutamide] (top concentration 10000 nM)	-1.68	-0.38	0.72	2.62	-1.68	-1.68	-1.68	-1.68	-1.68	-1.68	-1.68	0.62	2.02	-1.68	-1.38	-1.68	-1.68	1.02	-1.68	4.62
COc1cc(Nc2c(C#N)cnc3cc(OCCCN4CCN(C)CC4)c(OC)cc23)c(Cl)cc1Cl [Bosutinib] (top concentration 10000 nM)	26.7	-0.74	6.56	1.86	0.06	-2.64	-1.14	-2.04	0.96	8.06	-0.94	-3.04	-1.24	3.56	4.76	5.76	-1.94	1.56	1.96	16
COc1cc2c(NC3CCN(C(C)C)CC3)nc(C3CCCCC3)nc2cc1OCCCN1CCCC1 [UNC0638] (top concentration 10000 nM)	2.16	0.46	0.66	1.86	3.36	-3.44	-3.34	-4.34	-2.84	0.86	-5.14	-3.04	-3.64	0.86	-0.54	0.66	-0.24	-0.04	-2.94	-1.04
CCc1c(C(=O)C(N)=O)c2c(OCC(=O)O)cccc2n1Cc1ccccc1 [Varespladib] (top concentration 10000 nM)	-0.84	-0.84	-0.64	-0.84	-0.84	-0.84	-0.84	-0.84	-0.84	-0.84	-0.84	0.56	-0.84	-0.84	-0.84	-0.84	-0.84	-0.84	-0.84	-0.84
O=C1NC(=O)[C@@H](c2cn3c4c(cccc24)CCC3)[C@@H]1c1c[nH]c2ccccc12 [Tivantinib] (top concentration 1000 nM)	7.18	3.98	3.48	0.18	0.78	2.88	1.98	0.68	4.08	0.78	4.78	4.28	5.08	6.58	2.78	4.28	7.78	3.68	7.18	2.88
CN1CC[C@@H](NC(=O)Nc2ccc(C#N)cc2)C[C@@H]1c1nc2ccccc2[nH]1 [Glasdegib] (top concentration 1000 nM)	0.8	0	1	0	2.9	0.1	0	11.9	0	0.7	0.1	0	0	0	0	0	1.6	0	0	0
Nc1nc(Nc2ccc3c(c2)CC[C@@H](N2CCCC2)CC3)nn1-c1cc2c(nn1)-c1ccccc1CCC2 [BGB324] (top concentration 10000 nM)	3.12	1.92	2.22	3.82	1.32	-2.88	0.32	-1.58	1.52	-0.98	-2.68	-1.58	1.92	5.82	0.32	5.02	0.92	2.92	5.72	3.02
C=CC[C@@H]1/C=C(\C)C[C@H](C)C[C@H](OC)[C@H]2O[C@@](O)(C(=O)C(=O)N3CCCC[C@H]3C(=O)O[C@H](/C(C)=C/[C@@H]3CC[C@@H](O)[C@H](OC)C3)[C@H](C)[C@@H](O)CC1=O)[C@H](C)C[C@@H]2OC [Tacrolimus] (top concentration 10000 nM)	1.08	2.78	0.18	3.18	0.68	0.28	-0.72	-0.72	21.1	33.9	0.48	12.5	0.98	16.1	0.78	10.7	2.68	1.38	7.88	18.3
CCCCC(=O)OCC(=O)[C@]1(O)Cc2c(O)c3c(c(O)c2[C@@H](O[C@H]2C[C@H](NC(=O)C(F)(F)F)[C@H](O)[C@H](C)O2)C1)C(=O)c1c(OC)cccc1C3=O [Valrubicin] (top concentration 5000 nM)	-0.72	10.9	11.2	2.98	-1.02	-4.12	8.48	8.38	2.98	16	-1.82	-3.22	3.18	5.98	1.48	11.8	12.1	6.88	6.58	12.2
C[C@]1(O)C[C@@H](c2nc(-c3ccc4ccc(-c5ccccc5)nc4c3)c3c(N)nccn32)C1 [Linsitinib] (top concentration 10000 nM)	2.22	-3.18	-2.78	3.12	4.82	2.22	-2.28	-0.28	0.92	-3.18	-0.08	-3.18	-3.18	-0.68	-2.88	0.72	-3.18	-2.08	0.62	-3.18
CN(C)C(=O)c1ccc(S(=O)(=O)c2ccc(NC(=O)[C@@](C)(O)C(F)(F)F)c(Cl)c2)cc1 [AZD7545] (top concentration 10000 nM)	3.4	0	0.5	-0.2	0.1	0.3	-0.2	5.3	1.6	0.1	-0.2	0.3	3.7	0.6	3.1	3	4.4	5.7	0.6	4.9
